From US20100086483A1, “METHOD OF MULTIDETECTOR COMPUTED TOMAGRAPHY” (Gilead Palo Alto, Inc., priority 2008, published 2010)

Columns and labels:
normal subjects [1] = experiment: PET myocardial blood flow / coronary flow reserve after regadenoson with and without caffeine, crossover study; type: in vivo, human; conditions: for log CFR±SE: n=40
Description: (§1) 15O water was used as the radionuclide in the PET scans. There was a 1- to 14-day washout period between dosing days. Blood samples and measures of safety were collected until 120 minutes after study drug administration.
The CVT tracking number for the placebo capsules was 1341 (Leg 2).
The primary efficacy measure was the log coronary flow reserve (CFR), which is the ratio of stress MBF after regadenoson dosing to the resting MBF.
The data were also to be analyzed using Wilcoxon's rank-sum test.

normal subjects [2] = experiment: Safety and tolerability of regadenoson with and without prior caffeine; type: in vivo, human
Description: as §1
Safety measures included adverse events (AEs), serious adverse events, vital signs (HR and BP), ECG, concomitant medications, and a tolerability questionnaire. All available data from subjects who received the single dose of regadenoson were to be included in the statistical summaries.
ECG intervals and changes from baseline values in ECG intervals were to be presented, as were occurrences of rhythm or conduction abnormalities. Concomitant medication usage was to be summarized.
Tolerability questionnaire responses were to be analyzed using the Wilcoxen rank sum test (“How did you feel?” question) and the exact Cochran-Mantel-Haenszel test (Day 2-only question “How did this test compare to the first test?”).

[3] = caffeine 200 mg po, regadenoson 400 μg IV
[4] = regadenoson 400 μg IV after caffeine 200 mg po
[5] = caffeine 200 mg po vs placebo, regadenoson 400 μg IV, p<0.001
[6] = regadenoson 400 μg IV after placebo capsule
[7] = regadenoson 400 μg IV, 25/43 subjects

Cn1c(=O)c2c(ncn2C)n(C)c1=O [Caffeine, caffeine]
change in CFR (95% confidence) (normal subjects [1]; caffeine 200 mg po vs placebo, regadenoson 400 μg IV): < 20%
exponentiated lower limit of 90% confidence interval for log CFR (caffeine versus placebo difference) (normal subjects [1]; [3]): 0.80
exponentiated lower limit of 95% confidence interval for log CFR (caffeine versus placebo difference) (normal subjects [1]; [3]): 0.78
exponentiated upper limit of 90% confidence interval for log CFR (caffeine versus placebo difference) (normal subjects [1]; [3]): 1.06
exponentiated upper limit of 95% confidence interval for log CFR (caffeine versus placebo difference) (normal subjects [1]; [3]): 1.08
interaction of caffeine with regadenoson on CFR by sex (normal subjects [1]; [3]): no significant interaction
CFR (stress/rest) (normal subjects [1]; [4]): 2.75±0.16
log CFR±SE (normal subjects [1]; [4]): 0.95±0.06
tolerability questionnaire: comfort during the test with caffeine (normal subjects [2]; [5]): felt more comfortable
tolerability questionnaire: feeling after the caffeine test vs the placebo test (normal subjects [2]; [5]): felt better
effect of caffeine on severity of AEs (normal subjects [2]; [3]): attenuated
effect of caffeine on systolic or diastolic blood pressures in the presence of regadenoson (normal subjects [2]; [3]): no effect
overall incidence of AEs, placebo vs caffeine groups (normal subjects [2]; [3]): no difference
effect of caffeine on HR increase caused by regadenoson (normal subjects [2]; caffeine 200 mg po, regadenoson 400 μg IV, p<0.001): attenuated
regadenoson-induced headache severity with caffeine (normal subjects [2]; caffeine 200 mg po, regadenoson 400 μg IV, p=0.012): decreased

CNC(=O)c1cnn(-c2nc(N)c3ncn([C@@H]4O[C@H](CO)[C@@H](O)[C@H]4O)c3n2)c1 [Regadenoson, (1-{9-[(4S,2R,3R,5R)-3,4-dihydroxy-5-(hydroxymethyl)oxolan-2-yl]-6-aminopurin-2-yl}pyrazol-4-yl)-N-methylcarboxamide]
CFR (stress/rest) (normal subjects [1]; [6]): 2.97±0.16
log CFR±SE (normal subjects [1]; [6]): 1.03±0.06
AE sensation of heaviness, percentage of subjects (normal subjects [2]; regadenoson 400 μg IV): 28%
QTc prolongation (>500 msec and change of >60 msec) by ECG analysis after regadenoson dosing (normal subjects [2]; regadenoson 400 μg IV): one subject
first degree AV block by ECG analysis after regadenoson dosing (normal subjects [2]; regadenoson 400 μg IV): one subject
deaths or SAEs (normal subjects [2]; regadenoson 400 μg IV with and without caffeine): no reported deaths or SAEs
patients with at least one AE considered possibly related to regadenoson treatment (normal subjects [2]; regadenoson 400 μg IV, 1/43): 2%
AEs: ear and labyrinth disorders, percentage of subjects (normal subjects [2]; regadenoson 400 μg IV, 1/43 subjects): 2%
AEs: gastrointestinal disorders, percentage of subjects (normal subjects [2]; regadenoson 400 μg IV, 2/43 subjects): 5%
subjects with at least one AE with a maximum severity of severe (normal subjects [2]; regadenoson 400 μg IV, 4/43): 9%
AE paraesthesia, percentage of subjects (normal subjects [2]; regadenoson 400 μg IV, 8/43): 19%
AEs: general disorders and administration site conditions, percentage of subjects (normal subjects [2]; regadenoson 400 μg IV, 11/43 subjects): 26%
AE headache, percentage of subjects (normal subjects [2]; regadenoson 400 μg IV, 12/43): 28%
AEs: musculoskeletal and connective tissue disorders, percentage of subjects (normal subjects [2]; regadenoson 400 μg IV, 12/43 subjects): 28%
AE flushing, percentage of subjects (normal subjects [2]; regadenoson 400 μg IV, 13/43): 30%
AEs: vascular disorders, percentage of subjects (normal subjects [2]; regadenoson 400 μg IV, 13/43 subjects): 30%
AEs: nervous system disorders, percentage of subjects (normal subjects [2]; regadenoson 400 μg IV, 18/43 subjects): 42%
AE palpitations, percentage of subjects (normal subjects [2]; regadenoson 400 μg IV, 21/43): 49%
subjects with at least one AE with a maximum severity of moderate (normal subjects [2]; regadenoson 400 μg IV, 21/43): 49%
AE dyspnoea, percentage of subjects (normal subjects [2]; regadenoson 400 μg IV, 24/43): 56%
AEs: cardiac disorders, percentage of subjects (normal subjects [2]; [7]): 58%
AEs: respiratory, thoracic and mediastinal disorders, percentage of subjects (normal subjects [2]; [7]): 58%
subjects with at least one AE with a maximum severity of mild (normal subjects [2]; regadenoson 400 μg IV, forty percent): 17/43
subjects with at least one AE considered probably related to regadenoson treatment (normal subjects [2]; regadenoson 400 μg IV, ninety-five percent): 41/43
